From patent publication US4665075A, “Derivatives of hydroxy- or amino-substituted (piperidinylalkyl)quinazolines” (Janssen Pharmaceutica N.V., priority 1985, dated 1987)

How the values were obtained:
[1] = system: serotonin-induced contraction of the caudal artery of the rat; test: Test 1: Antagonistic activity on the effect of serotonin on the caudal artery of the rat; conditions: rat caudal artery strips; serotonin 40 ng/ml; measured 5 minutes after adding the drug
Description: Test 1: Antagonistic activity on the effect of serotonin on the caudal artery of the rat
Caudal arteries from fasted male rats (210-235 g) were used in the test. Two helical strips having a length of 5-6 cm and a width of 2 mm were obtained from each artery and mounted vertically in a 100 ml organ bath containing an oxygenated Krebs-Henseleit solution. Submaximal contractions of the arterial strips were produced by adding single doses of serotonin (40 ng/ml) to the organ bath for 2 minutes with each time an interval of 10 minutes. The amplitude of the contraction is measured before and 5 minutes after adding the drug. After washing out, the agonist was added again three times in order to see whether the contraction is restored and normalized.
In this connection the ED50 -values are the minimal concentrations of the concerned drugs which reduce the amplitude of the contraction to at least 50% of its normal value.

[2] = system: gastric lesions induced by compound 48/80; test: Test 2: Effects in gastric lesion tests; lesions induced by compound 48/80; assay type: in vivo, rat (male, Wistar inbred strain); conditions: oral, 2 hours before compound 48/80 1 mg/kg i.v.; stomachs inspected 4 hours later
Description: Test 2: Effects in gastric lesion tests
The shock, followed by dead, can be avoided if the rats are pretreated with a classical H1 antagonist.
Male rats of a Wistar inbred strain, weighing 220-250 g, were starved overnight, water being available ad libitum. The test compounds were administered orally as a solution or as a suspension in aqueous medium. A control rat and a "blank" rat receive the test compound. One hour later 5-[4-(diphenylmethyl)-1-piperazinyl-methyl]-1-methyl-1H-benzimidazole-2-methanol is adhministered subcutaneously to all rats at the dose of 2.5 mg/kg. […] Five minutes after the injection the intensity of purple-blue coloration (cyanosis) of the extremities was scored as 0 (absent), + (moderate) or ++ (intense). Four hours after the intravenous injection of compound 48/80 the rats were decapitated and the stomachs were removed. Subsequently the stomachs were inspected for distension and contents (blood, fluid, food) and thoroughly rinsed. The macroscopic lesions were scored from 0 to +++, 0 corrsponding to complete absence of visible lesions and the highest score corresponding to reddish rough patches covering more than half the glandular area.
The compounds listed in table 1 are not given for the purpose of limiting the invention thereto but only to exemplify the useful pharmacological activities of all the compounds within the scope of formula (I).

[3] = system: cyanosis, gastric lesions and shock induced by compound 48/80; conditions: rats injected with compound 48/80; cited from earlier work

Compound | Caudal artery ED50 (minimal concentration which reduces the amplitude of the serotonin-induced contraction to at least 50% of its normal value) [1] | Gastric lesion ED50 (dose at which distension of the stomach and lesions in the glandular area are completely absent in 50% of the test rats) [2] | prevention of the abnormal gastric distension [3] | prevention of the cyanosis of ears and extremities [3] | prevention of the lesions in the glandular area of the stomach [3]
Nc1ccc2c(=O)n(CCCCN3CCC(C(=O)c4ccc(F)cc4)CC3)c(=O)[nH]c2c1 [Compound 8, 7-amino-3-[4-[4-(4-fluorobenzoyl)-1-piperidinyl]butyl]-2,4(1H,3H)-quinazolinedione] | 0.32 ng/mL | 0.04 mg/kg |  |  | 
Nc1ccc2c(=O)n(CCN3CCC(C(=O)c4ccc(F)cc4)CC3)c(=S)[nH]c2c1 [Compound 9, 7-amino-3-[2-[4-(4-fluorobenzoyl)-1-piperidinyl]ethyl]-2,3-dihydro-2-thioxo-4(1H)-quinazolinone] | 0.18 ng/mL | 0.005 mg/kg |  |  | 
Nc1ccc2c(=O)n(CCCCN3CCC(C(=O)c4ccc(F)cc4)CC3)c(=S)[nH]c2c1 [Compound 11, 7-amino-3-[4-[4-(4-fluorobenzoyl)-1-piperidinyl]butyl]-2,3-dihydro-2-thioxo-4(1H)-quinazolinone] | < 0.63 ng/mL | 0.63 mg/kg |  |  | 
Nc1ccc2c(=O)n(CCN3CCC(C(=O)c4ccc(F)cc4)CC3)c(=O)[nH]c2c1 [Compound 12, 7-amino-3-[2-[4-(4-fluorobenzoyl)-1-piperidinyl]ethyl]-2,4(1H,3H)-quinazolinedione] | < 0.63 ng/mL | 0.04 mg/kg |  |  | 
CC(=O)Nc1ccc2c(=O)n(CCCCN3CCC(C(=O)c4ccc(F)cc4)CC3)c(=O)[nH]c2c1 [Compound 18, N-[3-[4-[4-(4-fluorobenzoyl)-1-piperidinyl]butyl]-1,2,3,4-tetrahydro-2,4-dioxo-7-quinazolinyl]-acetamide] | 0.32 ng/mL | 0.08 mg/kg |  |  | 
CC(=O)Nc1ccc2c(=O)n(CCN3CCC(C(=O)c4ccc(F)cc4)CC3)c(=S)[nH]c2c1 [Compound 19, N-[3-[2-[4-(4-fluorobenzoyl)-1-piperidinyl]ethyl]-1,2,3,4-tetrahydro-4-oxo-2-thioxo-7-quinazolinyl]acetamide] | 0.32 ng/mL | 0.01 mg/kg |  |  | 
CC(=O)Nc1ccc2c(=O)n(CCN3CCC(C(=O)c4ccc(F)cc4)CC3)c(=O)[nH]c2c1 [Compound 22] | 0.37 ng/mL | 0.04 mg/kg |  |  | 
CN(C)CCCSc1ccccc1NC(=O)/C=C/c1ccccc1 [cinanserin] |  |  | prevent completely | prevent completely | prevent completely
CN1CCC(=C2c3ccccc3C=Cc3ccccc32)CC1 [cyproheptadine] |  |  | prevent completely | prevent completely | prevent completely
CN1C[C@H](CNC(=O)OCc2ccccc2)C[C@@H]2c3cccc4c3c(cn4C)C[C@H]21 [metergoline] |  |  | prevent completely | prevent completely | prevent completely
CC[C@@H](CO)NC(=O)[C@@H]1C=C2c3cccc4c3c(cn4C)C[C@H]2N(C)C1 [methysergide] |  |  | prevent completely | prevent completely | prevent completely
CN1CCN2c3ccccc3Cc3ccccc3C2C1 (centres unmarked) [mianserin] |  |  | prevent completely | prevent completely | prevent completely
NC(=O)C1(N2CCCCC2)CCN(CCCC(=O)c2ccc(F)cc2)CC1 [pipamperone] |  |  | prevent completely | prevent completely | prevent completely
CN1CCC(=C2c3ccccc3CCc3sccc32)CC1 [pizotifen] |  |  | prevent completely | prevent completely | prevent completely
O=C(CCCN1CCC2(CC1)C(=O)NCN2c1ccccc1)c1ccc(F)cc1 [spiperone] |  |  | prevent completely | prevent completely | prevent completely
